The record followed here is patent US8338473B2, “Derivatives of psammaplin A, a method for their synthesis and their uses for the prevention or treatment of cancer” (Centre National de la Recherche Scientifique, priority 2007, dated 2012).

The structures appear in SMILES notation.

The test system of one data set is TRAIL. Put plainly: TRAIL expression (RT-PCR and ELISA) in U937 cells. Conditions: protein after 24 hrs. The class given is cell-based, human. On the procedure: FIG. 5: a) Analysis of the histone H3 acetylation levels on the TRAIL promoter regulatory region and on the TRAIL gene first intron carried out Chip and qPCR in U937 cells after the indicated time course with UVI5008; the ‘NoAb’ represents the negative control; b) TRAIL mRNA expression after the indicated times of incubation with UVI5008; G6PDH levels have been used for equal loading; c) TRAIL protein expression levels measured by ELISA assay in U937 cells after 24 hrs treatment with UVI5008.
(ELISA stands for enzyme-linked immunosorbent assay.)

A further data set has as its system A-375 cells. Description: MTT cytotoxicity assay, A-375. The conditions noted are these: read-out: IC50 values, MTT cytotoxicity assay; A-375, 48 h.
In another data set the test system is p16INK4a. Put plainly: p16 expression levels in U937 cells. The class given is cell-based, human. The conditions noted are these: U937, 24 hrs. On the procedure:
(§1) FIG. 2: a) Methylation specific PCR for the RARβ gene after 16 and 24 hrs of treatment with the indicated compounds; b) Methylation specific PCR for the p16 gene after 24 hrs of the indicated treatments. Samples are representative of real duplicates; c) p16 expression levels in U937 cells after 24 hrs with the indicated treatments; d) DNMT enzymatic in vitro assay carried out with 1.5 and 50 μM of the indicated compounds;
For the determination of p21^WAF1/CIP1 and p16^INK4 100 μg of total protein extracts were separated on a 15% polyacrylammide gels and blotted. Western blots were shown for p21 (Transduction Laboratories, dilution 1:500), p16 (Santa Cruz) and total ERKs (Santa Cruz) were used to normalise for equal loading. For alpha-tubulin acetylation 25 μg of total protein extracts were separated on a 10% polyacrylamide gels and blotted. Western blots were shown for acetylated alpha-tubulin (Sigma, dilution 1:500) and total ERKs (Santa Cruz) or total tubulin (Sigma) were used to normalise for equal loading.

In data set [1] the test system is ex vivo AML patient blasts. Description: Cell cycle and apoptosis in ex vivo AML patient blasts. The class given is cell-based, human. On the procedure: FIG. 4: a) Cell cycle analyses and apoptosis carried out in ex vivo samples from AML patients identified with numbers; b) Cell cycle analysis, apoptosis and histone H3 acetylation levels of #116 AML cells after 20 hrs is of the indicated treatments.
Human leukemia cell line U937 was propagated in RPMI medium supplemented with 10% FBS (Foetal bovine serum; Hyclone) and antibiotics (100 U/mL penicillin, 100 μg/mL streptomycin and 250 ng/mL amphotericin-B). Cells were kept at the constant concentration of 200000 cells per milliliter of culture medium. For AML samples, bone marrow containing 80% to 90% leukemic blasts was purified over Ficoll. This study was approved by the Ethical Committee of the Second University of Naples.

A further data set addresses human recombinant SIRT1 (Homo sapiens, UniProt Q96EB6). Description: SIRT activity assay, SIRT1. In kind it is biochemical. How it is done:
FIG. 13A: % of SIRT1 and SIRT2 activity with controls, sodium suramine, a sirtuin inhibitor, and resveratrol a SIRT1 activator, and with UVI5008 at concentrations of 50 μM and 5 μM.
The SIRT activity assay was performed using the human recombinant SIRT1 and SIRT2. SIRT1 (1 U/well) or SIRT2 (5 U/well), respectively, were incubated (37° C. for 1 h) with the SIRT1/2 substrate (corresponding to a p53 acetylated peptide) in the presence of NAD^+ and various concentrations of tested compounds (sirtuins activators or inhibitors). Activity was measured as fluorescence intensity. As internal controls, sodium suramin, a sirtuin inhibitor, and resveratrol, a SIRT1 activator, have been included. The fluorescence was measured on a fluorometric reader (Inphinite 200 TECAN) with excitation set at 360 nm and emission detection set at 460 nm

Another data set deals with RARβ2 promoter. Description: Methylation specific PCR for the RARβ gene. In kind it is cell-based. The conditions noted are these: 16 and 24 hrs. On the procedure:
as §1
Cells were resuspended into 150 μl of TE (Tris 10 mM—EDTA 1 mM). 1.5 mL of lysis buffer (10 mM Tris pH 8.0—0.1 mM EDTA pH 8.0—0.5% SDS—20 μg/ml Rnase Dnase-free) were added, and after an incubation time of 1 h at 37° C., a second incubation at 56° C. with proteinase K at 100 μg/ml final concentration was performed over night. Proteins were removed by phenol-chloroform extraction. The genomic DNA was then precipitated with 0.2 vol. of 10M ammonium acetate and 2 vol. ethanol, and centrifuged at 13000 rpm for 5 min. The DNA pellet was washed with 70% ethanol, air dried and resuspended in nuclease free water at 4° C. on rocking table. The concentration was measured at 260 nm. […]
20 μg of genomic DNA (or in vitro methylated DNA) were mixed with 5.5 μl of 3M NaOH, the volume was adjusted to 55.5 μl with filtered water. […] The PCR product (10 μl+5 μl loading dye) was analyzed on 1.5% agarose gel.

human recombinant SIRT1, sequence (Q96EB6 whole entry): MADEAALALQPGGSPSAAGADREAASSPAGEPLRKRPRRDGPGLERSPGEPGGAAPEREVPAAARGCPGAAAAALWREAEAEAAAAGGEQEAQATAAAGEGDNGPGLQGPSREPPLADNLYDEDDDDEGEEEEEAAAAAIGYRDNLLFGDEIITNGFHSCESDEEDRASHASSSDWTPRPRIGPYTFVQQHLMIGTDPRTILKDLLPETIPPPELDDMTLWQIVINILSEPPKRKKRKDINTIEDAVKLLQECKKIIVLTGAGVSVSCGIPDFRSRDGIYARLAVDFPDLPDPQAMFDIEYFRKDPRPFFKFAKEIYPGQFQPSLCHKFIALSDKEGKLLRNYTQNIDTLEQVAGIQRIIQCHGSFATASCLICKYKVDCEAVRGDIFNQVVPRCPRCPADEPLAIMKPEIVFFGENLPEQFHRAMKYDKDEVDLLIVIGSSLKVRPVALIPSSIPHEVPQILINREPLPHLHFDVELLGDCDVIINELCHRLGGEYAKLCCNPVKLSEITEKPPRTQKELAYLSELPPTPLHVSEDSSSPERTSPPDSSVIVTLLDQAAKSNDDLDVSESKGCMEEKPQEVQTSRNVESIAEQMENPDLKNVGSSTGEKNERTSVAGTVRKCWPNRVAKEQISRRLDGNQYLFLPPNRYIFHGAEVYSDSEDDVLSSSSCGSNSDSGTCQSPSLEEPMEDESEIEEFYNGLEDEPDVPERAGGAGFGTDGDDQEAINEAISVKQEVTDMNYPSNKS
Description for A-375 cells: Plates were kept in the humidified CO2 (5%) incubator overnight so that cells get attached to the bottom. […] Viable cells cleave the MTT tetrazolium ring into a dark blue formazan reaction product, whereas dead cells remain colorless. The MTT-containing medium was gently removed and DMSO was added in each well. After shaking, the plates were read in absorbance at 540 nm. All results are expressed as the average of three wells. Percent cytotoxicity was measured of each compound and represented in terms of its IC50 values.

For `O=C(NCCSSCCNC(=O)C(Cc1c[nH]c2ccc(Br)cc12)=NO)C(Cc1c[nH]c2ccc(Br)cc12)=NO` [UVI5008], the “TRAIL expression at mRNA and protein levels” value with TRAIL is reported as “increased expression”. The IC50 (as a rule, the concentration at which inhibition is half-maximal) stood at 3.1 ± 0.5 µM in the data set with A-375 cells and 8.9 µM on human recombinant SIRT1. Also, the p16INK4a gene expression entry in the data set with p16INK4a is recorded as “de-silenced”. Besides, the apoptotic activity entry in data set [1] (5 μM, two samples of patient blasts) is on record as “showed an apoptotic activity”. Besides, the “cell cycle arrest and apoptosis (caspase 3 activation)” value in data set [1] (4 ex vivo cultures, AML patients #102, #108, #109, #116) was “induced cell cycle arrest and apoptosis”. Besides, the “unmethylated RARβ2 (MSP)” value with RARβ2 promoter is “significant increase”.
